Key:
[1] = Quantum yield of photocleavage, He-Cd laser 325 nm, HPLC; assay type: physicochemical; details: 325 nm
Procedure: Initially, measurement of the quantum yield of photodoxazolidine R═H was done in a fully-absorbing solution of photoactive drug in a solution of 90% dimethylacetamide (DMA), 10% water in a 1×1 cm quartz cuvette equipped with a small magnetic stir bar. A stock of photodoxazolidine in DMA was diluted in 9:1 DMA:H2O to a final concentration of 373 μM in a final volume of 3.380 mL. […] The cuvette was placed into the path of an Omnichrome He-Cd laser (single-window power: 10.75 mW at 325 nm using a Scientech laser power meter). The solution was mixed by the stir bar, which was agitated with a magnetic stir plate placed vertically next to the cuvette. Aliquots of 20 μL were removed at times between 0 and 62 min of irradiation and those aliquots were analyzed by HPLC (method 2) for the ratio of dox to photodoxazolidine. The quantum yield was calculated from the ratio of molecules of doxorubicin (dox) formed to photons absorbed.
To allow for better comparison between the quantum yield of photocleavage of photodoxazolidine with the quantum yield for azido-PEG-photodoxazolidine, the measurement was retaken with 50% acetonitrile in water as a solvent. […] Photodoxazolidine (in DMF) was diluted with 30 mL of 50% acetonitrile to a final concentration of 104 μM. The solution was confirmed to be fully absorbing by monitoring the laser power exiting the cell throughout the course of the experiment, which never deviated from 0 mW. As above, the contents of the cell were mixed with a small magnetic stir bar. Aliquots of 50 μL were removed at various times and analyzed as described above. The calculated quantum yield in this solvent system was identical to that measured from the […] system used above.
Concentration of azido-PEG-photodoxazolidine was determined via absorbance (λ=480 nm, ε=11500 M^−1 cm^−1). A sample ([…]) was dissolved in 1 mL of ACN and transferred to a cuvette. A 12.4 mW Omnichrome HeCd was used to irradiate the solution for 30 min at 325 nm. Aliquots of 10 μL were collected at different times and analyzed by HPLC to determine the % Dox in relation to that of azido-PEG-photodoxazolidine. In calculating quantum yield: power (without cuvette)=12.4 mW, (with cuvette)=10.7 mW, incident light=11.55 mW; energy=0.462 J, 7.55×1017 photons; t=40 sec when % Dox=9.2. Experiments were performed in triplicate.
Azido-PEG-photodoxazolidine was irradiated with a 12.4 mW monochromatic laser at 325 nm for 30 min. Aliquots were collected throughout to determine the amount of azido-PEG-photodoxazolidine in relation to released doxorubicin, which was quantified by HPLC. […] The average of triplicate quantum yield experiments was 0.025. This value is in the low end of the quantum yield range, yet is beneficial because it signifies that UV must be applied for longer durations prior to release of the cytotoxic agent. This makes administration of this photo-activated prodrug safer, and its synthesis more practical.

[2] = In vivo body weight change as indication of toxicity; parameters: species or system nude mice; details: 4 mg/kg dox equivalent iv weekly x6; photodoxazolidine with 18-FDG ip
Procedure: For reconstitution for intravenous injection into mice, dry photodoxazolidine R═H (23 mg) was dissolved in 785 μL of DMSO for a final concentration of 34.5 mM, labeled “Drug Stock,” and stored dark at −20° C. Shortly before injection, the Drug Stock was thawed and 20-50 μL was transferred to a new tube. To this tube, 6 volumes (relative to the Drug Stock volume) of PEG-400 and 4 volumes of propylene glycol (PG) were added and the solution thoroughly mixed by vortexing. Immediately prior to injection, 9 volumes of saline (0.9% NaCl) was added to the DMSO/PEG/PG solution of photodoxazolidine and mixed by vortexing. […] Therefore, this formulation was used as prepared. This protocol produces a final formulation of 5% DMSO, 30% PEG-400, 20% PG, 45% saline. A standard injection of 100 μL of this formulation delivers 4 mg dox equivalent/kg body weight for a mouse weighing 0.025 kg.
Luciferase-positive MDA-MB-231 cells were maintained in MEM culture medium supplemented with 10% heat inactivated fetal bovine serum and 2% penicillin/streptomycin. Prior to injection, typsinized cell populations were counted with a Z1 Coulter Particle counter, centrifuged, and resuspended in Hank's Balanced Salt Solution (HBSS) at a concentration of 4.0×10^7 cells/mL. […] Body weight and tumor growth were measured regularly. Tumor growth was measured optically from the bioluminescence signal from injection of luciferin. […]

Question: Which results are given for `COc1cc(COC(=O)N2COC3C(C)OC(OC4CC(O)(C(=O)CO)Cc5c(O)c6c(c(O)c54)C(=O)c4c(OC)cccc4C6=O)CC32)c([N+](=O)[O-])cc1OC` (stereo not drawn) [Photodoxazolidine]?
Answer: quantum yield ([1]; 50% acetonitrile in water, vs first solvent system): identical; quantum yield ([1]; 90% dimethylacetamide, 10% water): 0.002; body weight change [2]: no significant change
